Experimental data taken from PMC9993459, “A novel selective spleen tyrosine kinase inhibitor SKI-O-703 (cevidoplenib) ameliorates lupus nephritis and serum-induced arthritis in murine models” (Clinical and Experimental Immunology, 2022).

Columns and labels:
BALB/c mice = test: K/BxN serum-transferred arthritis (KSTA) in BALB/c mice; type: in vivo, mouse
Protocol: Arthritogenic serum was collected from 8-to-15-week-old K/BxN mice. Eight-week-old male BALB/c mice were injected intraperitoneally (ip) with 100 μl of K/BxN serum to induce arthritis. The mice were treated orally twice daily with 42 or 84 mpk of SKI-O-703 from that day for 9 days. In some experiments, mice were injected ip every 2 days with 400 μg/mouse of the TNF blocker, etanercept (Amgen). Ankle thickness was measured, and arthritic index was determined daily, as described previously. On day 9 post-induction, spleens and draining (inguinal and axillary) lymph nodes (LNs) were removed post mortem and assayed by histopathological and immunologic methods.
Hind paws were removed from KSTA mice, fixed, and decalcified in 5.5% EDTA in phosphate-buffered formalin. The paws were embedded in paraffin, sectioned, and stained with hematoxylin and eosin (H&E). Arthritic changes in the ankle and foot were scored (0–4 scale) and expressed as a histopathologic index, as described previously. Safranine O-stained sections were scored (0–4 scale) and expressed as the score for cartilage erosion, as described.
Single-cell suspensions of spleen and LN cells were prepared as previously described. Joint tissues from hind paws of KSTA mice were dissected free of soft tissue and bones, digested with 100 μg/ml Liberase (Roche) for 45 min at 37 °C, and filtered through a 70-μm-pore cell strainer (SPL Life Sciences) to prepare single cell suspensions of synovial infiltrates. The single cell suspensions were stained with an appropriate combination of mAbs and analyzed by FACS. The mAbs used were: CD138-PE, B220-PerCP or -APC-cy7, FAS-PE, CD19-PerCP or -APC, CD21-FITC or -APC, CD43-APC, CD23-PE-cy7, CD8a-PE, CD25-APC-cy7, CXCR5-biotin, GL7-FITC, CD45.2-FITC, CD27-FITC, Ki-67-FITC, Gr-1-FITC, CD4-FITC or -APC-cy7, phospho-Syk-PE, CD11b-PE or -PerCP, PD-1-APC, CD44-APC-cy7, and F4/80-PerCP mAbs (all from BD Biosciences, eBioscience or Biolegend). Streptavidin-PerCP was purchased from BD Biosciences.

Jak2 = Jak2 (Homo sapiens, UniProt O60674); test: Kinase assay (LANCE Ultra TR-FRET), Jak2; type: biochemical
Chain of Jak2 (O60674 whole entry, species assumed): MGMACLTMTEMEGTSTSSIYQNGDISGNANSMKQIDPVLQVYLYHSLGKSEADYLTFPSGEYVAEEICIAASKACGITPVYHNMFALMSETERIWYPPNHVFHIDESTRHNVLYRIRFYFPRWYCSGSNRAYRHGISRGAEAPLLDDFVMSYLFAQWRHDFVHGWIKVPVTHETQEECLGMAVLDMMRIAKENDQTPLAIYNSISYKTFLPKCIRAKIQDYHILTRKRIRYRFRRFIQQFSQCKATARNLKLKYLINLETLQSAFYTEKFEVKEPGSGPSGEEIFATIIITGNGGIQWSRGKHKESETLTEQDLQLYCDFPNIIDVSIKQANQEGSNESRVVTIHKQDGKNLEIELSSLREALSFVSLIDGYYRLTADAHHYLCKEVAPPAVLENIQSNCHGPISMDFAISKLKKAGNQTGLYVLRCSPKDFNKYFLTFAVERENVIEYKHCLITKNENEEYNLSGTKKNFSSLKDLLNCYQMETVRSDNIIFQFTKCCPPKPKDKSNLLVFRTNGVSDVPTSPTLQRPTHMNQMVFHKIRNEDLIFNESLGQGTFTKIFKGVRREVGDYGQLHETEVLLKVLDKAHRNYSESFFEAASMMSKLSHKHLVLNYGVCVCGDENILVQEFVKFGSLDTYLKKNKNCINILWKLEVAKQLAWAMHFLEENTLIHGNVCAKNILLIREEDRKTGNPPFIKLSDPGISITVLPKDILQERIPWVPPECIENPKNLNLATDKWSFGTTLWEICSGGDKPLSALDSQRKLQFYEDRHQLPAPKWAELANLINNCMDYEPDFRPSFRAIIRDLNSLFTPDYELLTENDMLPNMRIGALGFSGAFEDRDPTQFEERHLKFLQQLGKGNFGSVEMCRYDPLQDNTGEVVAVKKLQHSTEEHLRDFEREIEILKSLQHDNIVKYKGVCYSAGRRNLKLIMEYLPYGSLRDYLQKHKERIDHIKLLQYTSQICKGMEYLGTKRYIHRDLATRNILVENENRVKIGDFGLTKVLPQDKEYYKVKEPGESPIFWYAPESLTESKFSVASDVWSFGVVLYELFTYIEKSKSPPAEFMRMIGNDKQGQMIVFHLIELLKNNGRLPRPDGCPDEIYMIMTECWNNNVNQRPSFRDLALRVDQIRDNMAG
Protocol: (§1) Kinase assays were conducted in 384-well plates using LANCE ultra 66 time-resolved fluorescence resonance energy transfer (TR-FRET) methods, according to the manufacturer’s instructions (Perkin-Elmer). In brief, each kinase was pre-incubated with a serially diluted compound for 30 min, incubated with ULight poly-GT peptide substrate and ATP for up to 1 h. Thirty minutes after adding Eu-labeled anti-phosphopeptides Ab diluted in LANCE Detection Buffer, LANCE signals were measured with an EnVision multilabel reader (Perkin-Elmer).

RET = RET (Homo sapiens, UniProt P07949); test: Kinase assay (LANCE Ultra TR-FRET), RET; type: biochemical
Chain of RET (P07949 29-1114, species assumed): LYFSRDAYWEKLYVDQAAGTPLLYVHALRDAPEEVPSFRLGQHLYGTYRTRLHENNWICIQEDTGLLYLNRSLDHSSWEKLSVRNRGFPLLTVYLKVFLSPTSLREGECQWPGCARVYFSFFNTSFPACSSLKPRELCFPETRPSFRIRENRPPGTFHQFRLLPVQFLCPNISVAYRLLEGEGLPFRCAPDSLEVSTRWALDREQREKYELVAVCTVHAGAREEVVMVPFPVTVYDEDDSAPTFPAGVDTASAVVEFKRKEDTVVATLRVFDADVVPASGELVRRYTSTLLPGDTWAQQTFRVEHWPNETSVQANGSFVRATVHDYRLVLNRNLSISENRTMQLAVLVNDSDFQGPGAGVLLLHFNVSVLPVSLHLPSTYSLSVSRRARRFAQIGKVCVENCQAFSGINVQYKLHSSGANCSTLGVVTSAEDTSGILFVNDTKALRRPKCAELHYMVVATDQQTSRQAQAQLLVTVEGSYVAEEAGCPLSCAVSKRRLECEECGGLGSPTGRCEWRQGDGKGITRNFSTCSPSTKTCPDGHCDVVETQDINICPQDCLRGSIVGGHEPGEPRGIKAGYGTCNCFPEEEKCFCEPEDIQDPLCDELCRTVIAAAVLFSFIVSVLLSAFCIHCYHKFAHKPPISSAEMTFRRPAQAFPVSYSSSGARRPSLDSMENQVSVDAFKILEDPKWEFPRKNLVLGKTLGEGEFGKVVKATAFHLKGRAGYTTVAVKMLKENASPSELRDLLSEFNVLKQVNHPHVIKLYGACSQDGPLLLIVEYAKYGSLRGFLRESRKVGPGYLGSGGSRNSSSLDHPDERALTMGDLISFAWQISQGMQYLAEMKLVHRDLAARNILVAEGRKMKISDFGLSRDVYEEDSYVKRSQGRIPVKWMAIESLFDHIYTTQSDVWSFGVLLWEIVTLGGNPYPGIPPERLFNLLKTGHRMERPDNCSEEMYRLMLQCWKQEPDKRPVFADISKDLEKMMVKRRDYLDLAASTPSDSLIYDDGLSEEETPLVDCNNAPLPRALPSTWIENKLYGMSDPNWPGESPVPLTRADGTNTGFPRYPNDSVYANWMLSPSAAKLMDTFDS
Protocol: as §1

[1] = biological target: T1, phosphorylated Syk (p-Syk) in THP-1 cells (Homo sapiens, UniProt P43405); test: p-Syk ELISA in IgG-stimulated THP-1 cells (FcγR signal); type: cell-based
T1 construct: endogenous in cells; host or cells: Ramos (ATCC), THP-1 (ATCC), human CD14+ monocytes (Lonza)
Protocol: THP-1 and Ramos cell lines and human CD14^+ monocytes were purchased from the American Type Culture Collection (ATCC) and Lonza, respectively. After treatment with Syk inhibitors for 1 h, THP-1 cells and monocytes were stimulated for 15 min with 100 μg/ml human IgG (Invitrogen), and Ramos cells were stimulated with 2 μg/ml anti-human IgM monoclonal Ab (mAb) (Bathyl). Cells were lysed in RIPA buffer containing 1% NP-40, 1% sodium deoxycholate, 0.1% SDS, and a mixture of protease and phosphatase inhibitors (Thermo Scientific). The lysates were assayed by standard immunoblotting methods and ELISA. Primary Abs used for immunoblotting were anti-phospho-Syk ([…]), anti-phospho-Vav (Y174), anti-phospho-PLCγ1 (Y1217) and anti-phospho-BLNK (Y96) Abs (all from Cell Signaling). ELISAs to detect phospho-Syk (Y525/526) were performed according to the manufacturer’s protocol (Cell Signaling).
Ramos cells (A), human primary monocytes (B), and THP cells (C) were pretreated with inhibitors at the indicated concentrations and stimulated with anti-human IgM (A) and human IgG (B and C). […] The relative intensities of protein phosphorylation levels were quantitated with reference to each lane of β-actin control bands. (D) Ramos cells, human primary monocytes, and THP cells were treated as in A–C for 24 h and levels of phosphorylated Syk (p-Syk) were measured by ELISA.

Compound: CS(=O)(=O)O.CS(=O)(=O)O.Cc1nn(-c2ccnc(Nc3ccc4c(c3)c(C(=O)C3CC3)cn4C)n2)cc1CN1C[C@H](O)CO1 [SKI-O-703, (S)-cyclopropyl(5-((4-(4-((4-hydroxyisoxazolidin-2-yl)methyl)-3-methyl-1H-pyrazol-1-yl)pyrimidin-2-yl)amino)-1-methyl-1H-indol-3-yl)methanone dimesylate]
- Ankle thickness and arthritic index (BALB/c mice; 42 mpk (lower dose) oral twice daily for 9 days): the reduction was less pronounced
- Progression of KSTA (ankle thickness, arthritic index, inflammatory cell infiltration) (BALB/c mice; 42 mpk SKI-O-703 combined with TNF blocker etanercept, synergistic): significantly suppressed disease progression
- Ankle thickness and arthritic index (BALB/c mice; 84 mpk oral twice daily for 9 days): dramatically reduced to the basal level
- Numbers of whole immune cells (CD45+) infiltrated into synovial tissue (BALB/c mice; 84 mpk, mainly neutrophils and macrophages): significantly reduced
- Histopathologic index and cartilage erosion score (BALB/c mice; high dose (84 mpk), day 9): significantly reduced
- Joint-draining LN total cells, B cells and GC B cells (BALB/c mice; high dose, day 9, lymphadenopathy disappeared): significantly reduced numbers
- Progression of KSTA (BALB/c mice; suboptimal dose 42 mpk, alone): did not significantly inhibit progression of KSTA

Compound: Cc1nn(-c2ccnc(Nc3ccc4c(c3)c(C(=O)C3CC3)cn4C)n2)cc1CN1C[C@H](O)CO1 [SKI-O-592]
- Ratio to Syk (Jak2) (Jak2; IC50 ratio to Syk): 302
- IC50 (Jak2; kinase activity, TR-FRET): 1.86 µM
- Ratio to Syk (RET) (RET; IC50 ratio to Syk): 67
- IC50 (RET; kinase activity, TR-FRET): 0.412 µM
- IC50 [1]: 0.266 µM
